Assays:
Estrogen receptor = target: T1, Estrogen receptor (Homo sapiens, UniProt P03372)
T1 sequence (P03372 whole entry): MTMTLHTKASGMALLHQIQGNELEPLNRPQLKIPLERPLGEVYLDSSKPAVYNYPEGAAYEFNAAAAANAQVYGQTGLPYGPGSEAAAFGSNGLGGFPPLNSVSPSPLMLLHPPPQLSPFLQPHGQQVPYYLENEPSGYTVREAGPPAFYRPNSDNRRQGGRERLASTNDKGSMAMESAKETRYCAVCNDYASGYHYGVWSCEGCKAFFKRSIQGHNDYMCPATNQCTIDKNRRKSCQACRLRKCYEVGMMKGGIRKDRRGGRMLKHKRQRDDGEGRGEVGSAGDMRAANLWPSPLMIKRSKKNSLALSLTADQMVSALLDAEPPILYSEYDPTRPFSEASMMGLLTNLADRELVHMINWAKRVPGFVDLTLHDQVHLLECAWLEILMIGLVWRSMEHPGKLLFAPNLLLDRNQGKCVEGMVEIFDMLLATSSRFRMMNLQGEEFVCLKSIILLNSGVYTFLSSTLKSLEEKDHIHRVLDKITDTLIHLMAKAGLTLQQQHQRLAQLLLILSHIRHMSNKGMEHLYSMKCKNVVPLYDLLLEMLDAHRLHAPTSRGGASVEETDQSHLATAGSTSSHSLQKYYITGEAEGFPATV
Description: Inhibition of estrogen receptor alpha

Estrogen receptor beta = Estrogen receptor beta (Homo sapiens, UniProt Q92731); experiment: Inhibition of estrogen receptor beta
Estrogen receptor beta, sequence (Q92731 whole entry): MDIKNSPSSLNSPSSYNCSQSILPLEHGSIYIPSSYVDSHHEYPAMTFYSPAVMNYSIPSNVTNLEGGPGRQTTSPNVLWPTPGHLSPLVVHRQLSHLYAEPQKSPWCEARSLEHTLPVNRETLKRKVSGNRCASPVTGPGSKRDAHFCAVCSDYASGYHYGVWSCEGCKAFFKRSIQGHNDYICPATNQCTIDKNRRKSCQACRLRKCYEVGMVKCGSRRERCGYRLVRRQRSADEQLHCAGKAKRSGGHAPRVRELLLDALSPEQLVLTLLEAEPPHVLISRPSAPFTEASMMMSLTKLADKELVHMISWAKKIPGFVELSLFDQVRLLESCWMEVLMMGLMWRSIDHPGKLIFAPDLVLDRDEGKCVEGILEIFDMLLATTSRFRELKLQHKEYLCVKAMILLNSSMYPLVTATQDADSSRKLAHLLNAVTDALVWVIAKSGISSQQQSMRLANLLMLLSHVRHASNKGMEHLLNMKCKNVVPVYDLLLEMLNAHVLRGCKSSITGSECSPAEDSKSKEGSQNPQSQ

[1] = target: T2, Estrogen receptor (Mus musculus) (UniProt P19785)
T2 sequence (whole entry): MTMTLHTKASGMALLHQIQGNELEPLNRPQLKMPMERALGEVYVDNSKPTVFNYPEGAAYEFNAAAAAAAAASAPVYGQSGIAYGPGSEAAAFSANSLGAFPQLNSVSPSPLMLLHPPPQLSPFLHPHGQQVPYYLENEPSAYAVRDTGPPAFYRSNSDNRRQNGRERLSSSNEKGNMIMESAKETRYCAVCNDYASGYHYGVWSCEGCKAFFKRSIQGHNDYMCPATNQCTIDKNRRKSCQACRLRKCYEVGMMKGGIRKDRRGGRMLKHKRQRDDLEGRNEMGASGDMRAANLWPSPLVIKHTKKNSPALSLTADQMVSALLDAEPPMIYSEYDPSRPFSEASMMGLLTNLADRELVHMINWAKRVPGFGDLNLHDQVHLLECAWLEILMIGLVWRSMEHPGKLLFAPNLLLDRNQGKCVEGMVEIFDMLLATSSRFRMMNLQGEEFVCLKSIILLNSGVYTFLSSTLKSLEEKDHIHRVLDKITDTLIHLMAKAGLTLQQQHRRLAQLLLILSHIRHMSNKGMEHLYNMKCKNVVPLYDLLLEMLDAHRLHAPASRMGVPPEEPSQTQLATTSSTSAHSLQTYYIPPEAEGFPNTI
Description: Bone mineral density of compound was determined in vivo against estrogen receptor alpha

[2] = target: T2, Estrogen receptor (Mus musculus); conditions: Uterus
Description: Uterine weight assay of compound was determined in vivo against estrogen receptor alpha

| SMILES | IC50 (Estrogen receptor) [nM] | IC50 (Estrogen receptor beta) [nM] | Bone mineral density [1] [mg/cubic cm] | Uterine weight [2] [mg] |
| --- | --- | --- | --- | --- |
| O=C(c1ccc(N2CCN(C(=O)c3ccccc3[N+](=O)[O-])CC2)cc1)c1c(-c2ccc(O)cc2)sc2cc(O)ccc12 | 3.58 | 12.9 |  |  |
| O=C(c1ccc(N2CCN(C(=O)c3ccc([N+](=O)[O-])cc3)CC2)cc1)c1c(-c2ccc(O)cc2)sc2cc(O)ccc12 | 2.15 | 1.27 |  |  |
| O=C(c1ccc(N2CCN(Cc3ccc([N+](=O)[O-])cc3)CC2)cc1)c1c(-c2ccc(O)cc2)sc2cc(O)ccc12 |  | 14.2 |  |  |
| Cc1cc(C)nc(N2CCN(c3ccc(C(=O)c4c(-c5ccc(O)cc5)sc5cc(O)ccc45)cc3)CC2)n1 | 2.12 | 66.5 |  |  |
| O=C(c1ccc(N2CCN(C(=O)c3ccc(Cl)cc3)CC2)cc1)c1c(-c2ccc(O)cc2)sc2cc(O)ccc12 | 0.78 | 4.02 |  |  |
| O=C(c1ccc(N2CCN(Cc3ccccc3)CC2)cc1)c1c(-c2ccc(O)cc2)sc2cc(O)ccc12 | 0.97 | 5.53 |  |  |
| O=C(c1ccc(N2CCN(C(=O)c3cccc(Cl)c3)CC2)cc1)c1c(-c2ccc(O)cc2)sc2cc(O)ccc12 | 0.46 | 3.7 | 432 | 29.3 |
| Cc1cccc(C(=O)N2CCN(c3ccc(C(=O)c4c(-c5ccc(O)cc5)sc5cc(O)ccc45)cc3)CC2)c1 | 0.27 | 12.5 |  |  |
| O=C(c1ccc(N2CCN(C(=O)c3ccccc3)CC2)cc1)c1c(-c2ccc(O)cc2)sc2cc(O)ccc12 | 0.86 | 25.3 |  |  |
| Cc1ccc(C(=O)N2CCN(c3ccc(C(=O)c4c(-c5ccc(O)cc5)sc5cc(O)ccc45)cc3)CC2)cc1 | 2.74 | 4.94 |  |  |
| O=C(c1ccc(N2CCN(c3ccc(Cl)cc3)CC2)cc1)c1c(-c2ccc(O)cc2)sc2cc(O)ccc12 | 0.22 | 9.07 | 482 | 30.5 |
| O=C(c1ccc(N2CCN(C(=O)c3ccccc3O)CC2)cc1)c1c(-c2ccc(O)cc2)sc2cc(O)ccc12 | 3.05 | 7.92 |  |  |
| CCCN1CCN(c2ccc(C(=O)c3c(-c4ccc(O)cc4)sc4cc(O)ccc34)cc2)CC1 | 1.43 | 29.4 |  |  |
| O=C(c1ccc(N2CCN(C(=O)c3ccco3)CC2)cc1)c1c(-c2ccc(O)cc2)sc2cc(O)ccc12 | 2.65 | 20.1 |  |  |
| O=C(c1ccc(N2CCN(C(=O)c3cccc(O)c3)CC2)cc1)c1c(-c2ccc(O)cc2)sc2cc(O)ccc12 | 1.39 | 19.8 |  |  |
| CC(C)N1CCN(c2ccc(C(=O)c3c(-c4ccc(O)cc4)sc4cc(O)ccc34)cc2)CC1 | 0.28 | 33.9 | 541 | 38.8 |
| O=C(c1ccc(N2CCN(C(=O)c3ccccc3Cl)CC2)cc1)c1c(-c2ccc(O)cc2)sc2cc(O)ccc12 | 1.72 | 3.21 |  |  |
| O=C(c1ccc(N2CCN(C(=O)c3ccncc3)CC2)cc1)c1c(-c2ccc(O)cc2)sc2cc(O)ccc12 | 14.5 | 93.6 |  |  |
| O=C(c1ccc(N2CCN(C3CCCC3)CC2)cc1)c1c(-c2ccc(O)cc2)sc2cc(O)ccc12 | 1.08 | 18.1 |  |  |
| Cc1ccccc1C(=O)N1CCN(c2ccc(C(=O)c3c(-c4ccc(O)cc4)sc4cc(O)ccc34)cc2)CC1 | 3.94 | 17.7 |  |  |

Reference: ChEMBL document CHEMBL1141904, “Benzothiophenes containing a piperazine side chain as selective ligands for the estrogen receptor alpha and their bioactivities in vivo” (Bioorg Med Chem Lett, 2005)
